This note sets out measurements from patent publication US6989252B2, “Hydrogen production using hydrogenase-containing oxygenic photosynthetic organisms” (Midwest Research Institute, priority 1999, dated 2006).

In the assay the test system is H2-producing C. reinhardtii cultures. Nature of the assay: H2 gas collection from H2-producing sulfur-deprived cultures after inhibitor addition. The class given is cell-based, Chlamydomonas reinhardtii. As to conditions: inhibitor added to H2-producing sulfur-depleted cultures. An excerpt:
Culture bottles (Schott or Roux type) were fitted with an #25 Ace thread and smaller side-ports for liquid sampling. A threaded glass stopper with capillaries for gas sampling was fitted with a Viton O-ring and used to seal the reactor. Threaded side-arm and gas sampling ports were sealed with rubber laminated Teflon septa. Teflon tubing (Aminco, HPLC), attached to one of the gas ports, was used to conduct gas evolved by the algae in the culture bottles to an upside-down graduated cylinder filled with H2O. The gas collection tubing was detached from the culture bottle during liquid and gas sampling to avoid disturbance of gas volume readings in the graduated cylinder.
We, thus, conclude that most of the reductants for H2 production are generated by residual water oxidation activity in sulfur-depleted C. reinhardtii cultures, but that an endogenous substrate may also contribute electrons for the process.

As to `CC1=C(Br)C(=O)C(C(C)C)=C(Br)C1=O` [DBMIB], the “inhibition of H2 gas collection” value is “Total inhibition”.

As to `CN(C)C(=O)Nc1ccc(Cl)c(Cl)c1` [DCMU], the “rate of H2 gas collection relative to its initial value” (% of initial value) was “about 20%”.
